{"source": "patent US20240115554A1", "about": "“METHODS FOR TREATING OBSTRUCTIVE HYPERTROPHIC CARDIOMYOPATHY” (Cytokinetics, Incorporated, priority 2022, published 2024)", "key": {"[1]": {"test_system": "patients with symptomatic obstructive HCM (oHCM)", "experiment": "Phase 2 trial: NYHA functional class", "assay_type": "in vivo, human", "from_the_text": "Secondary results from the clinical study included data from Cohort 3 (n=13). […] Overall, treatment duration for each patient in the study was 10 weeks with an echocardiogram conducted 2 weeks after the last dose. Efficacy endpoints included resting and provoked LVOT gradients, NYHA class, and NT-proBNP."}, "[2]": {"test_system": "healthy adults", "settings": "in vivo", "from_the_text": "Study Overview and Ethics. The study used a randomized, placebo-controlled, single-ascending dose (SAD) and multiple-ascending dose (MAD) design (FIG. 2). […] Dose escalation was to be stopped when this range was achieved, or when a non-tolerated dose was identified, if earlier.\nSingle-ascending dose (SAD) cohorts. The SAD portion of the study used a randomized, double-blind, placebo-controlled, sequential, escalating-dose design, in which participants received single-ascending oral doses of the study drug. Seven cohorts were dosed in sequence (FIG. 2).\nRecommendations regarding dose escalation in the SAD cohorts—and in the MAD cohorts described below—were made by the treating investigator (who was blinded to treatment group) and endorsed or not by the Dose Level Review Committee (DLRC), who were unblinded. […] Criteria for escalation included that no more than 2 participants in a dose group developed an LVEF <50% and no individual developed an LVEF <45%.\nMultiple-ascending dose (MAD) cohorts. The MAD cohorts also used a randomized, double-blind, placebo-controlled, sequential design.\nSafety and tolerability. Safety was assessed by the incidence of adverse events (AEs) and by incidence of reduced LVEF. Treatment-emergent AEs (TEAE) were defined as AEs that began or increased after study drug administration. All AEs were coded using the Medical Dictionary for Regulatory Activities version 21.1 and graded using the National Cancer Institute Common Terminology Criteria for AEs (version 4.03) 5-point severity scale. Each AE was judged as either related or unrelated to the study drug by the treating investigator. Clinical laboratory tests were obtained at regular intervals in all cohorts.\nFor safety monitoring, participants in all cohorts had periodic echocardiograms, which were assessed by a cardiologist. In the SAD and MAD cohorts, echocardiograms were also reviewed by an echocardiography core laboratory for PD assessments, as described below. In addition, participants in all cohorts were monitored with continuous 12-lead ECG recording using Holter monitors. For safety monitoring, a single 12-lead ECG was extracted at screening, pre-dose, and periodically throughout follow-up, and interpreted by the investigator. In the SAD, MAD, and CYP2D6-PM cohorts, cardiodynamic ECGs (triplicate 10-second, 12-lead ECG recordings) were obtained prior to the corresponding PK blood and ECG intervals quantitated by qualified readers."}, "[3]": {"settings": "pooled aficamten Cohorts 1 and 2"}}}
{"compound": "CCc1nc(-c2ccc3c(c2)CC[C@H]3NC(=O)c2cnn(C)c2)no1", "note": "[aficamten, (R)—N-(5-(5-ethyl-1,2,4-oxadiazol-3-yl)-2,3-dihydro-1H-inden-1-yl)-1-methyl-1H-pyrazole-4-carboxamide]", "values": [{"measurement": "patients with improvement in NYHA class by one or more classes", "setting": "[1]; Cohort 2", "value": 64, "unit": "%"}, {"measurement": "NYHA improvement in baseline class III patients", "setting": "[1]; Cohort 3", "value": "all baseline NYHA class III patients improved by ≥1 class"}, {"measurement": "patients with ≥1 NYHA class improvement", "setting": "[1]; Cohort 3 (Eleven patients)", "value": 85, "unit": "%"}, {"measurement": "patients converted from class III to class II or I", "setting": "[1]; Cohorts 1 and 2", "value": 7, "unit": "patients"}, {"measurement": "patients who improved from NYHA class III to I", "setting": "[1]; [3]", "value": "one"}, {"measurement": "patients who improved from NYHA class III to II", "setting": "[1]; [3]", "value": 6, "unit": "patients"}, {"measurement": "patients with change in NYHA class of one or more classes", "setting": "[1]; pooled aficamten Cohorts 1 and 2 (15 of 28)", "value": 53, "unit": "%"}, {"measurement": "participants with echocardiogram-related AEs of decreased ejection fraction <45%", "setting": "[2]; human", "value": 3, "unit": "participants"}, {"measurement": "overall safety and tolerability", "setting": "[2]", "value": "safe and well tolerated"}, {"measurement": "post-dose LVEF of 1 participant with LVEF <50%", "setting": "[2]", "value": 46.2, "unit": "%"}, {"measurement": "serum chemistry, hematology, urinalysis findings", "setting": "[2]", "value": "No clinically significant serum chemistry, hematology, or urinalysis findings"}]}
